{
  "source": "patent US12472213B2",
  "about": "“Strains of Lactobacillus delbrueckii which inhibit Porphyromonas gingivalis” (Trustees of Tufts College, priority 2019, dated 2025)",
  "key": {"[1]": {"tested_on": "Lactobacillus delbrueckii STYM1 strain pyruvate oxidase (L. delbrueckii Pox, LDBND_1487), wild type, C-terminal His6", "assay": "Pyruvate oxidase activity assay and kinetic parameters (oxidative coupling, H2O2 production, A550)", "type": "biochemical", "conditions": "for Km: 25° C.", "procedure": "The C-terminal primer encoded a glycine-serine linker followed by a 6-histidine tag and a stop codon. The PCR product was ligated into the pFLAG-CTC vector (Sigma) using the NdeI and XhoI restriction sites and transformed into DH5α E. coli resulting in the plasmid pFLAG-CTC_Pox. The construct was confirmed by PCR and sequencing. pFLAG-CTC_Pox was transformed into LOBSTR E. coli in which Pox was expressed as a C-terminal His6-Pox. A 6 mL starter culture was incubate at 37° C. overnight in LB supplemented with 100 μg/mL of ampicillin. The starter culture was diluted 1:100 into 40 mL of LB supplemented with 100 μg/mL of ampicillin and grown at 37° C. until the OD600 reached 0.4-0.8. The temperature was then shifted to 26° C. and the cells were incubated with 1 mM isopropyl-β-D-thiogalactopyranoside (IPTG) for 20 hours. The cells were harvested by centrifugation at 3,200×g for 10 minutes, resuspended in 1 mL PBS EDTA-free cOmplete protease inhibitor cocktail (Roche), and lysed by sonication on ice, as described above. […] Protein purity was assessed by SDS-PAGE and Coomassie staining.\nPyruvate oxidase activity of recombinant Pox was assessed by an oxidative coupling reaction. […] Immediately upon addition of purified Pox, the formation of a quinoneimine dye was measured by an increase in the absorbance at 550 nm which was recorded every 30 seconds at room temperature. […] Pox activity is assessed by determining the change in absorbance at 550 nm per minute. […] Activity was determined according to the following equation: specific activity=[(ΔA550/min)(dilution factor)(total reaction volume)]/[(36.88)(0.5)(path length)(sample volume)(C)], where the total reaction volume is 1 ml, the millimolar extinction coefficient of quinoneimine dye is 36.88, the factor of 0.5 was determined based on the fact that 1 mol of hydrogen peroxide produces 0.5 mol of quinoneimine dye, the light path length is 1 cm, the sample volume is 0.1 ml, and C is the concentration of undiluted enzyme in mg/ml. […]\nPyruvate oxidase activity was measured as previously described (16). […]"}, "[2]": {"tested_on": "Lactobacillus delbrueckii STYM1 strain pyruvate oxidase (L. delbrueckii Pox, LDBND_1487), wild type, full-length", "assay": "Phospholipid activation assay of L. delbrueckii Pox", "type": "biochemical", "conditions": "various concentrations; 16:0-18:1 acyl chains", "procedure": "(§1) Pyruvate oxidase enzyme or pyruvate:oxygen 2-oxidoreductase (phosphorylating) (EC 1.2.3.3) was derived from Lactobacillus delbrueckii STYM1 strain (16).\nPyruvate oxidase activity was measured as previously described (16). Briefly, 50 mM sodium pyruvate, 15 μM FAD, 300 μM TPP, 0.03% N-ethyl-N-(2-hydroxy-3-sulfopropyl)-m-toluidine (sigma), 0.015% 4-aminoantipyrine (sigma), and 33 μg/mL horseradish peroxidase (Sigma) were combined with purified pox enzyme. After a 10-minute incubation at room temperature, sodium phosphate pH 5.6 was added to 50 mM final concentration to initiate the reaction. The formation of a quinoneimine dye at 25° C. was measured by an increase in absorbance at 550 nm and the specific activity was calculated as described. 1 unit of Pox activity is defined as the production of 1 μmol of hydrogen peroxide per minute and this was converted to μM/min for kinetic analysis.\nPhosphotidylethanolamine (16:0-18:1) (Avanti Lipids), Phosphotidylcholine (16:0-18:1) (Avanti Lipids), and Phosphotidylglycerol (16:0-18:1) (Avanti Lipids) dissolved in chloroform were evaporated under a steady stream of argon gas and dried in a vacuum desiccator for 1 hour to evaporate residual chloroform. The phospholipids were resuspended in 20 mM Bis-Tris 150 mM NaCl pH 6 and incubated at 37° C. with shaking at 225 rpm for 30 minutes. The suspension was vortexed for 30 seconds and vortexed immediately prior to each use.\n(§2) Phospholipids were added to the pyruvate oxidase assay mixture at various concentrations and enzyme activity was measured as described above. Fold activity was calculated relative to enzyme activity without phospholipid."}, "[3]": {"tested_on": "Lactobacillus delbrueckii STYM1 pyruvate oxidase variant Δ32 (C-terminal truncation lacking the last 32 amino acids)", "assay": "Phospholipid activation assay of L. delbrueckii Pox Δ32", "type": "biochemical", "conditions": "various PE concentrations", "text": "The C-terminus of E. coli Pox is important for lipid activation of the enzyme (13). To test if the C-terminus was important in the L. delbrueckii Pox, a C-terminal truncation was generated that lacked the last 32 amino acids. The enzyme was purified and tested for its ability to be activated by PE (FIG. 18A). […] This is consistent with the E. coli pox truncation having greater activity partially mimicking lipid activation (20). Furthermore, the Δ32 enzyme was only weakly activated by PE to approximately 2-fold greater than the enzyme without PE compared to an approximately 6-fold activation with the full-length enzyme (FIG. 15B and FIG. 18C).\nThe PCR product was ligated into the pFLAG-CTC vector (Sigma, St. Louis, MO) using the NdeI and XhoI restriction sites. […] The construct was transformed into LOBSTR E. coli, in which the L. delbrueckii Δ32 Pox was expressed as a C-terminal His6-Pox. […] Protein purity was assessed by SDS-PAGE and Coomassie staining.\nPyruvate oxidase activity was measured as previously described (16). […] The formation of a quinoneimine dye at 25° C. was measured by an increase in absorbance at 550 nm and the specific activity was calculated as described. […]\nas §2"}, "[4]": {"tested_on": "Lactobacillus delbrueckii STYM1 strain pyruvate oxidase (L. delbrueckii Pox, LDBND_1487), wild type", "assay": "PE co-sedimentation", "type": "binding", "conditions": "1 mM PE, 50 mM pyruvate, 300 μM TPP, 15 μM FAD, 30 minutes at room temperature", "procedure": "as §1\nPE was prepared as described above for activation experiments. 3 μg of L. delbrueckii Pox was incubated with 50 mM pyruvate, 300 μM TPP, and 15 μM FAD with either 1 mM PE or no PE for 30 minutes at room temperature. The PE fraction was precipitated by centrifugation at 16,000×g for 20 minutes at 4° C. The supernatant was aspirated as the soluble fraction and the PE pellet was resuspened in an equal amount of buffer. The fractions were visualized by Coomassie staining after SDS-PAGE."}},
  "note": "Read-outs that look alike come from different tables or passages of the source.",
  "data": [
    {"compound": "phosphate", "values": [
      {"measurement": "Km", "setting": "[1]; with 7.2 mM PE, 170 nM enzyme, read-out: km for phosphate (with PE)", "result": 1.25, "unit": "mM"},
      {"measurement": "Km", "setting": "[1]; without PE, 1.76 μM enzyme, pyruvate 50 mM, pH 5.6, read-out: km for phosphate", "result": 8, "unit": "mM"}
    ]},
    {"compound": "CCCCCCCC/C=C\\CCCCCCCC(=O)O[C@H](COC(=O)CCCCCCCCCCCCCCC)COP(=O)(O)OCC(O)CO", "note": "(some centres unmarked) [PG, Phosphotidylglycerol (16:0-18:1)]", "values": [
      {"measurement": "catalytic activation by phospholipid (in words)", "setting": "[2]", "result": "not PC or PG"}
    ]},
    {"compound": "CCCCCCCC/C=C\\CCCCCCCC(=O)O[C@H](COC(=O)CCCCCCCCCCCCCCC)COP(=O)([O-])OCC[N+](C)(C)C", "note": "[PC, Phosphotidylcholine (16:0-18:1)]", "values": [
      {"measurement": "catalytic activation by phospholipid (in words)", "setting": "[2]", "result": "not PC or PG"}
    ]},
    {"compound": "CCCCCCCC/C=C\\CCCCCCCC(=O)O[C@H](COC(=O)CCCCCCCCCCCCCCC)COP(=O)(O)OCCN", "note": "[PE, Phosphotidylethanolamine (16:0-18:1)]", "values": [
      {"measurement": "fold activity relative to the enzyme without PE", "setting": "[3]", "result": "approximately 2 fold"},
      {"measurement": "co-precipitation with PE", "setting": "[4]", "result": "did not co-precipitate with PE"},
      {"measurement": "increase in kcat relative to the enzyme in the absence of PE", "setting": "[1]; 7.2 mM PE vs no PE", "result": "approximately 18 fold"},
      {"measurement": "catalytic activation by phospholipid (in words)", "setting": "[2]", "result": "catalytically activated specifically by PE"}
    ]}
  ]
}
